Data on 15 compounds can be found in patent US8906904B2, “Alkoxy pyrazoles as soluble guanylate cyclase activators” (Boehringer Ingelheim International GmbH, priority 2012, dated 2014).

Structures are written as SMILES. Values after ≈ are worked out from the molar mass of the structure shown.

The nature of series [1]: Assessment of solubility (McIlvaine buffers, 24 h shake, UPLC-UV). Format: physicochemical. The conditions noted are these: kinetic from dmso stock. Summed up:
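Compounds from 10 mM DMSO stocks were shaken for 24 h at room temperature in McIlvaine buffers at pH 2.2, 4.5 and 6.8 (2.5% v/v DMSO final), then filtered. Filtrates were quantified by UPLC-UV at 254 nm against a 50:50 acetonitrile/water reference assumed fully dissolved, as a single determination.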

Series [2] can be described thus: human liver microsome (HLM) metabolic stability assay. It counts as in vitro ADME. Conditions: human liver microsomes; % hepatic blood flow calculated from t1/2. The method, boiled down:
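Compounds at 1 uM incubated with human liver microsomes plus NADPH at 37° C., sampled at 0, 5, 15, 30 and 60 min into cold acetonitrile and quantified by LC/MS/MS. t½ from the slope of ln % remaining vs time; CLint, CLh and % Qh derived from it (n=1).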

As for `CCOc1c(C(=O)O)cnn1-c1cccc(-c2cccc(C)c2OCc2ccc3c(c2C)CCN(C[C@@H]2CCCCO2)C3)n1` [Compound 236], the solubility at 24 h in series [1] (pH 2.2, aqueous buffer) came to 110 µg/mL (≈ 184 µM); in series [1] (pH 4.5, aqueous buffer), 96 µg/mL (≈ 161 µM); in series [1] (pH 6.8, aqueous buffer), 83 µg/mL (≈ 139 µM). In addition, in series [2], the “HLM (% Qh)” value is under 24 % Qh.

For `COc1c(C(=O)O)cnn1-c1cccc(-c2cccc(C)c2OCc2cc(C)c3c(c2)CCN(C2COC2)C3)n1` [Compound 186], the solubility at 24 h in series [1] (pH 2.2, aqueous buffer) stood at 110 µg/mL (≈ 203 µM); in series [1] (pH 4.5, aqueous buffer), 83 µg/mL (≈ 154 µM); in series [1] (pH 6.8, aqueous buffer) it was 99 µg/mL (≈ 183 µM). Also, the “HLM (% Qh)” value in series [2] is recorded as under 24 % Qh.

Turning to `CCOc1c(C(=O)O)cnn1-c1cccc(-c2cccc(C)c2OCc2ccc3c(c2C)CCN(C[C@@H]2CCO2)CC3)n1` [Compound 228], the solubility at 24 h amounted to 96 µg/mL (≈ 165 µM) in series [1] (pH 2.2, aqueous buffer); 78 µg/mL (≈ 134 µM) in series [1] (pH 4.5, aqueous buffer); 81 µg/mL (≈ 139 µM) in series [1] (pH 6.8, aqueous buffer). In addition, the “HLM (% Qh)” value in series [2] is recorded as 44 % Qh.

Turning to `COc1c(C(=O)O)cnn1-c1cccc(-c2cccc(C)c2OCc2ccc3c(c2Cl)CCN(C2CCOC2)C3)n1` (stereo not drawn) [Compound 22], the solubility at 24 h was found to be 97 µg/mL (≈ 169 µM) in series [1] (pH 2.2, aqueous buffer); 68 µg/mL (≈ 118 µM) in series [1] (pH 4.5, aqueous buffer); 73 µg/mL (≈ 127 µM) in series [1] (pH 6.8, aqueous buffer). Moreover, the “HLM (% Qh)” value in series [2] is listed as 33 % Qh.

In the case of `CCOc1c(C(=O)O)cnn1-c1cccc(-c2cccc(C)c2OCc2ccc3c(c2C)CCN(C[C@H]2CCCCO2)CC3)n1` [Compound 214], the solubility at 24 h in series [1] (pH 2.2, aqueous buffer) was determined as 81 µg/mL (≈ 133 µM); in series [1] (pH 4.5, aqueous buffer), 64 µg/mL (≈ 105 µM); in series [1] (pH 6.8, aqueous buffer), 69 µg/mL (≈ 113 µM). In series [2], the “HLM (% Qh)” value was under 24 % Qh.

As for `COc1c(C(=O)O)cnn1-c1cccc(-c2cccc(C)c2OCc2ccc3c(c2)CCN(CC2CCC2)C3)n1` [Compound 25], the solubility at 24 h worked out at 91 µg/mL (≈ 169 µM) in series [1] (pH 2.2, aqueous buffer); 38 µg/mL (≈ 70.5 µM) in series [1] (pH 4.5, aqueous buffer); 39 µg/mL (≈ 72.4 µM) in series [1] (pH 6.8, aqueous buffer). The “HLM (% Qh)” value in series [2] is 29 % Qh.

In the case of `COc1c(C(=O)O)cnn1-c1cccc(-c2cccc(C)c2OCc2ccc3c(c2C)CCN(C[C@@H]2CCOC2)C3)n1` [Compound 191], the solubility at 24 h in series [1] (pH 2.2, aqueous buffer) was 100 µg/mL (≈ 176 µM); in series [1] (pH 4.5, aqueous buffer), 85 µg/mL (≈ 149 µM); in series [1] (pH 6.8, aqueous buffer), 80 µg/mL (≈ 141 µM). Besides, in series [2], the “HLM (% Qh)” value was under 24 % Qh.

`CCOc1c(C(=O)O)cnn1-c1cccc(-c2cccc(C)c2OCc2ccc3c(c2C)CCN(C[C@H]2CCOC2)C3)n1` [Compound 193]: the solubility at 24 h stood at 100 µg/mL (≈ 172 µM) in series [1] (pH 2.2, aqueous buffer); 80 µg/mL (≈ 137 µM) in series [1] (pH 4.5, aqueous buffer); 73 µg/mL (≈ 125 µM) in series [1] (pH 6.8, aqueous buffer). Further, the “HLM (% Qh)” value in series [2] was under 24 % Qh.

Consider `CCOc1c(C(=O)O)cnn1-c1cccc(-c2cccc(C)c2OCc2ccc3c(c2)CCN(C2COC2)CC3)n1` [Compound 213], for which the solubility at 24 h was 85 µg/mL (≈ 153 µM) in series [1] (pH 2.2, aqueous buffer); 66 µg/mL (≈ 119 µM) in series [1] (pH 4.5, aqueous buffer); 72 µg/mL (≈ 130 µM) in series [1] (pH 6.8, aqueous buffer). In addition, in series [2], the “HLM (% Qh)” value is given as under 24 % Qh.

For the compound `COc1c(C(=O)O)cnn1-c1cccc(-c2cccc(C)c2OCc2ccc3c(c2Cl)CCN(C2COC2)C3)n1` [Compound 17], the solubility at 24 h in series [1] (pH 2.2, aqueous buffer) came to 97 µg/mL (≈ 173 µM); in series [1] (pH 4.5, aqueous buffer), 62 µg/mL (≈ 111 µM); in series [1] (pH 6.8, aqueous buffer), 85 µg/mL (≈ 152 µM). Moreover, the “HLM (% Qh)” value in series [2] is recorded as 31 % Qh.

On to `CCOc1c(C(=O)O)cnn1-c1cccc(-c2cccc(C)c2OCc2ccc3c(c2C)CCN(C[C@@H]2CCCO2)CC3)n1` [Compound 235], for which the solubility at 24 h turned out to be 100 µg/mL (≈ 168 µM) in series [1] (pH 2.2, aqueous buffer); 83 µg/mL (≈ 139 µM) in series [1] (pH 4.5, aqueous buffer); 88 µg/mL (≈ 147 µM) in series [1] (pH 6.8, aqueous buffer). Besides, the “HLM (% Qh)” value in series [2] is 29 % Qh.

In the case of `COc1c(C(=O)O)cnn1-c1cccc(-c2cccc(C)c2OCc2ccc3c(c2)CCN(CC2CC2)C3)n1` [Compound 24], the solubility at 24 h in series [1] (pH 2.2, aqueous buffer) is 95 µg/mL (≈ 181 µM); in series [1] (pH 4.5, aqueous buffer) it was 76 µg/mL (≈ 145 µM); in series [1] (pH 6.8, aqueous buffer), 76 µg/mL (≈ 145 µM). Further, the “HLM (% Qh)” value in series [2] is on record as under 24 % Qh.

With `COc1c(C(=O)O)cnn1-c1cccc(-c2cccc(C)c2OCc2ccc3c(c2)CN(CC2COCCO2)C3)n1` (stereo not drawn) [Compound 247], the solubility at 24 h in series [1] (pH 2.2, aqueous buffer) is 90 µg/mL (≈ 162 µM); in series [1] (pH 4.5, aqueous buffer), 75 µg/mL (≈ 135 µM); in series [1] (pH 6.8, aqueous buffer), 71 µg/mL (≈ 128 µM). Also, the “HLM (% Qh)” value in series [2] is under 24 % Qh.

For the compound `COc1c(C(=O)O)cnn1-c1cccc(-c2cccc(C)c2OCc2ccc3c(c2C)CCN(CC2(C)COC2)C3)n1` [Compound 28], the solubility at 24 h came to 110 µg/mL (≈ 193 µM) in series [1] (pH 2.2, aqueous buffer); 83 µg/mL (≈ 146 µM) in series [1] (pH 4.5, aqueous buffer); 90 µg/mL (≈ 158 µM) in series [1] (pH 6.8, aqueous buffer). Also, the “HLM (% Qh)” value in series [2] is listed as under 24 % Qh.

As to `COc1c(C(=O)O)cnn1-c1cccc(-c2cccc(C)c2OCc2cc(C)c3c(c2)CCN(CC2COCCO2)C3)n1` (stereo not drawn) [Compound 240], the solubility at 24 h in series [1] (pH 2.2, aqueous buffer) worked out at 92 µg/mL (≈ 157 µM); in series [1] (pH 4.5, aqueous buffer) it was 69 µg/mL (≈ 118 µM); in series [1] (pH 6.8, aqueous buffer), 67 µg/mL (≈ 115 µM). Further, in series [2], the “HLM (% Qh)” value was under 24 % Qh.
